Source: patent publication US8394742B2, “Methods, compounds and compositions with genotype selective anticancer activity” (The Translation Genomics Research Institute, priority 2005, dated 2013)

Experiments:
BxPC-3 cells [1] = test: Annexin V-FITC apoptosis assay; assay type: cell-based, human; details: BxPC-3, 25 μM, 24 hours; untreated control 4.6%
Experimental: Cells were grown and treated with UA62001 as described in the cell cycle distribution analysis section above. Twenty-four hours after the treatment with the compound, cell media containing detached floating cells were transferred to 15 ml conical tubes; while the attached cells were trypsinized and collected in the same tube. Cells were then pelleted by centrifugation at 1500 rpm for 5 min, washed with PBS and then resuspended in 1×binding buffer at a concentration of 1×10^6 cells/ml. One hundred microliters (1×10^5 cells) were incubated with 5 μl of Annexin V-FITC (BD Pharmingen) and propidium iodide for 15 min in the dark at room temperature. After adding 400 μl of the 1× binding buffer, the cells were analyzed by flow cytometry (BD Immunocytometry systems). Data were acquired and analyzed using CellQuest software.

Panc-1 (DPC4 wildtype) = test: MTS cell proliferation assay, Panc-1 cells; assay type: cell-based; details: Homo sapiens
Experimental: (§1) The inhibition of cell proliferation by library compounds was evaluated using the CellTiter 96 Non-Radioactive Cell Proliferation Assay following the protocol recommended by the manufacturer (Promega, Madison Wis.). Briefly, 2000 cells were seeded in each well of 96-well plates in 90 μl growth medium. Cells were allowed to attach overnight followed by addition of 10 μl of serially diluted compounds into the plates. After incubation for 4 days at 37° C. in a humidified incubator, 20 μl of a 20:1 mixture of (3-(4,5-dimethylthiazol-2-yl)-5-(3-carboxymethoxyphenyl)-2-(4-sulfophenyl)-2H-tetrazolium, inner salt (MTS, 2 mg/ml) and an electron coupling reagent, phenazine methosulfate (PMS, 0.92 mg/ml), was added to each well and incubated for 3 hours at 37° C. Absorbance was then measured using the Wallace Victor microplate reader at 490 nm (PerkinElmer, Wellesley, Mass.). Data were expressed as the percentage of cell growth calculated from the absorbance corrected for background absorbance. The surviving fraction of cells was determined by dividing the mean absorbance values of the treated samples by the mean absorbance values of the DMSO control.
(§2) After generating the isogenic cell lines for the DPC4 gene, Applicants then carried out a screening process using the cell lines with the aim to identify compounds that selectively kill cells with deficient DPC4 function. […]

BxPC-3 cells [2] = test: Cell cycle distribution analysis (propidium iodide, flow cytometry); assay type: cell-based, human; details: BxPC-3, 25 μM
Experimental: Cells (5×10^5) were plated in a T-25 tissue culture flask 24 hours prior to the drug treatment. […] After the treatment, the cells were harvested by trypsinization and centrifugation and then stained with propidium iodide (Sigma) in a modified Krishan buffer (20) for 4 hours at 4° C. The PI stained samples were then analyzed with a FACScan flow cytometer (BD Immunocytometry systems, San Jose, Calif.). Histograms were analyzed for cell cycle compartments and the percentage of cells at each phase of the cell cycle was calculated using CellQuest (BD Immunocytometry systems) analysis software.

Forf = test: MTS cell proliferation assay, Forf normal fibroblasts; assay type: cell-based, human; details: even at 200 μM
Experimental: as §1, §2

[3] = tested on: HPDE6-siDPC4 (HPDE6 cells with DPC4 expression stably suppressed by siRNA); test: MTS cell proliferation assay, HPDE6-siDPC4 cells; assay type: cell-based; details: Homo sapiens
Experimental: At the initial screening, compounds are tested in the MTS assay (or other cell proliferation assays such as SRB and Alamar Blue) against the cell line in which the specific gene is either deleted or suppressed by siRNA at a single dose of 10 μM (Toxicity Screening).
Compounds that show more than 50% cell growth inhibition at this concentration are selected to test against both isogenic cell lines (loss-of-function vs. wild type) at three different concentrations (10, 2 and 0.4 μM, Synthetic lethal Screening). Compounds that show a selectivity index ≧5 are selected for next round of screening—Selectivity Screening.
In the Selectivity Screening, compounds are tested against cancer cell lines with a specific loss-of-function mutation and normal cells (HPDE6 and FORF-TERT). Depending on their approximate potency assessed in the Synthetic lethal Screening, compounds are tested in a range of concentrations (8 concentrations per agent) in Selectivity Screening. Compounds that have nM IC50 values in loss-of-function cells and selectivity index values >10 are selected for phenotypic consequence tests and in vivo evaluations in animal models.
The inhibition of cell proliferation by library compounds was evaluated using the CellTiter 96 Non-Radioactive Cell Proliferation Assay following the protocol recommended by the manufacturer (Promega, Madison Wis.). […]

SMILES: O=C1c2ccccc2C(=O)c2c1ccc1c(=O)n(-c3ccccc3)[nH]c21 [UA62001, 2-phenyl-1H-Naphth [2,3-g]indazole-3,6,11(2H)-trione]
- percentage of cells in the M1 region (Annexin V staining) (BxPC-3 cells [1]): 8.2%
- IC50 (Panc-1 (DPC4 wildtype)): 26 µM
- cell population in S phase (BxPC-3 cells [2]; 24 hours, control 33.6%): 55.6%
- cell population in S phase (BxPC-3 cells [2]; 48 hours, control 28.6%): 59.5%
- cell population in S phase (BxPC-3 cells [2]; 72 hours, control 17.0%): 57.4%
- G2/M phase population (BxPC-3 cells [2]; untreated control ~10%): ~20%
- growth inhibition (Forf): little growth inhibition
- IC50 [3]: 6 µM
